Consider 1 compound from ChEMBL document CHEMBL2086309, “Discovery of liver selective non-steroidal glucocorticoid receptor antagonist as novel antidiabetic agents” (Bioorg Med Chem Lett, 2012).

Structures are written as SMILES.

For data set [1], the system named is Mus musculus. As to the kind of experiment: Antidiabetic activity in ob/ob mouse assessed as insulin level at 10 mg/kg, po administered BID for 28 days measured 16 hrs post-last dose by ELISA (reference value: 13.6+/-2.3 ng/mL). Type of data set: functional. Background: An ELISA detects its analyte on a solid surface through an enzyme-linked reagent.
In data set [2] the target is T1, Glucocorticoid receptor (Rattus norvegicus, UniProt P06536).
T1 sequence (P06536 whole entry): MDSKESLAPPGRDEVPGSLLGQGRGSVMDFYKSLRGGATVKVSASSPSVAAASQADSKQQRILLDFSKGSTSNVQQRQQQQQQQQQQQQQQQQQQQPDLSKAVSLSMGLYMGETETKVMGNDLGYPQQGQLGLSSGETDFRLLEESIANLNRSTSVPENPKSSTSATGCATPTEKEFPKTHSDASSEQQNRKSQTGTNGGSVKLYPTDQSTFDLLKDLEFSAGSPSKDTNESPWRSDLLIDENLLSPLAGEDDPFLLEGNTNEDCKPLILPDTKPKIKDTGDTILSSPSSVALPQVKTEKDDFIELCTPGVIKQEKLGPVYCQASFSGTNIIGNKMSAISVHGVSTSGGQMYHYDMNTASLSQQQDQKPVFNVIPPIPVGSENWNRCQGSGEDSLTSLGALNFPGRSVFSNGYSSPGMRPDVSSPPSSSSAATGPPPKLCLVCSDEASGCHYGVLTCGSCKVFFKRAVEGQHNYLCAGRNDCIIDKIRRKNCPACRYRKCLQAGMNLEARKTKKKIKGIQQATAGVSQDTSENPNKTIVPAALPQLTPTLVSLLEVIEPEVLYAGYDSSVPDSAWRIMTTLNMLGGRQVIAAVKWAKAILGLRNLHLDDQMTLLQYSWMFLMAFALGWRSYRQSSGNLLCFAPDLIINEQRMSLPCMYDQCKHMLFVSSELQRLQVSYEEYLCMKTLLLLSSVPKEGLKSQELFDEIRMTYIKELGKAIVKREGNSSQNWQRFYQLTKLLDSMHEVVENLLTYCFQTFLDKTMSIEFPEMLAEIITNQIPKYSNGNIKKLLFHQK
The data set can be described thus: Antagonist activity at glucocorticoid receptor in rat hepatocytes assessed as inhibition of dexamethasone-induced […] expression incubated for 30 mins prior to dexamethasone-induction measured after 4 hrs by reporter gene assay. Type of data set: functional, cell-based, Hepatocyte. Background: Reporter assays use an easily measured gene product as a stand-in for the process of interest.

Data set [3] concerns Mus musculus. The data set can be described thus: Antihyperlipidemic activity in ob/ob mouse assessed as triglyceride level at 20 mg/kg, po administered BID for 28 days measured 16 hrs post-last dose (reference value: 292.5+/-17.5 mg/dL). Type of data set: functional.
Data set [4] in a line: Ratio of drug uptake in liver to plasma in Sprague-Dawley rat at 20 mg/kg, po administered as single dose. Format: ADME, organism-based. Set-up: dose 20 mg/kg, route oral.
Data set [5] in a line: Half life in Sprague-Dawley rat at 20 mg/kg, po administered as single dose. Type of data set: ADME, organism-based. More on the design: dose 20 mg/kg, route oral. The following applies: in vivo.
In data set [6] the test system is Mus musculus. The data set can be described thus: Antihyperlipidemic activity in ob/ob mouse assessed as free fatty acid level at 20 mg/kg, po administered BID for 28 days measured 16 hrs post-last dose (reference value: 1.96+/-0.09 mEq/L). Type of data set: functional.
For data set [7], the system named is Mus musculus. The data set can be described thus: Toxicity in ob/ob mouse assessed as change in body weight at 10 mg/kg, po administered BID for 28 days (reference value: 11.7+/-1.1 g). Type of data set: organism-based. The conditions noted are these: in vivo, 672 h. Set-up: dose 10 mg/kg, route oral.
Data set [8] has as its system Mus musculus. As to the kind of experiment: Antihyperlipidemic activity in ob/ob mouse assessed as cholesterol level at 20 mg/kg, po administered BID for 28 days measured 16 hrs post-last dose (reference value: 331.2+/-17.9 mg/dL). Type of data set: functional.
Data set [9] relates to Mus musculus. The data set can be described thus: Antidiabetic activity in ob/ob mouse assessed as Hb1Ac level at 20 mg/kg, po administered BID for 28 days measured 16 hrs post-last dose (reference value: 9.3+/-0.4%). Type of data set: functional.
The nature of data set [10]: Oral bioavailability in Sprague-Dawley rat. Format: ADME, organism-based. The conditions noted are these: in vivo.
Data set [11] can be described thus: Drug uptake in Sprague-Dawley rat liver at 20 mg/kg, po administered as single dose measured at 0.5 hrs. Format: ADME, organism-based. Set-up: dose 20 mg/kg, route oral. The following applies: read-out: Drug uptake.
Data set [12] can be described thus: AUC in Sprague-Dawley rat at 20 mg/kg, iv administered as single dose. Format: ADME, organism-based. More on the design: dose 20 mg/kg, route intravenous. The following applies: plasma.
In data set [13] the target is T2, Glucocorticoid receptor (Homo sapiens, UniProt P04150).
T2 sequence (P04150 whole entry): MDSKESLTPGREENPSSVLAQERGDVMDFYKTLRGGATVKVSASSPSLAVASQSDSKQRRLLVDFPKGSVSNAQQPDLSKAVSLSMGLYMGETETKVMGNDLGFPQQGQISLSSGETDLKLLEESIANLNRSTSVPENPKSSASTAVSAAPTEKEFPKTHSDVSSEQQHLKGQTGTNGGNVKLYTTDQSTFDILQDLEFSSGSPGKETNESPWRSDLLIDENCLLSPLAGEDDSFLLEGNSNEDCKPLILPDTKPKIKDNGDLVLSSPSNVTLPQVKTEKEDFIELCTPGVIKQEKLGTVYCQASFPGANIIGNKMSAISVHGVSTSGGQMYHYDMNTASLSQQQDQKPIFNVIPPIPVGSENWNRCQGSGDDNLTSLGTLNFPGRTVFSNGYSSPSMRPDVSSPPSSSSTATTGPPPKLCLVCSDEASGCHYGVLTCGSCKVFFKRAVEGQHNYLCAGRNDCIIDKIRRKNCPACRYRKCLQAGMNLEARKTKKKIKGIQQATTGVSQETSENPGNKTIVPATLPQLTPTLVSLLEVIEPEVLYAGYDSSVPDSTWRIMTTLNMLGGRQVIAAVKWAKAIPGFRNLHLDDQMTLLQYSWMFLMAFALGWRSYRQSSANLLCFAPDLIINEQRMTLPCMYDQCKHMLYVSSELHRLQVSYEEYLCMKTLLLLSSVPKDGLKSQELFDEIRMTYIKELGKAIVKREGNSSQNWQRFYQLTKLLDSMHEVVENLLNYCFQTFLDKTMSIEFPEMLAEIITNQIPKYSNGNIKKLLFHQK
As to the kind of experiment: Antagonist activity at human glucocorticoid receptor expressed in GRAF cells assessed as inhibition of dexamethasone-induced alkaline phosphatase expression after 48 hrs by reporter gene assay. Format: functional, cell-based.

Data set [14] relates to Mus musculus. As to the kind of experiment: Toxicity in ob/ob mouse assessed as change in body weight at 20 mg/kg, po administered BID for 28 days (reference value: 11.7+/-1.1 g). The conditions noted are these: in vivo, 672 h. More on the design: dose 20 mg/kg, route oral. Type of data set: organism-based.
For data set [15], the system named is Mus musculus. The data set can be described thus: Antidiabetic activity in ob/ob mouse assessed as decrease in post-prandial blood glucose level at 10 mg/kg, po administered BID for 28 days measured 16 hrs post-last dose relative to vehicle-treated control. Type of data set: functional. Set-up: scale not given: the % may be the effect or the level left.
Data set [16] concerns Mus musculus. The data set can be described thus: Antidiabetic activity in ob/ob mouse assessed as decrease in post-prandial blood glucose level at 20 mg/kg, po administered BID for 28 days measured 16 hrs post-last dose relative to vehicle-treated control. Type of data set: functional. More on the design: scale not given: the % may be the effect or the level left.
Data set [17] concerns the target T2, Glucocorticoid receptor. As to the kind of experiment: Displacement of [3H]dexamethasone from human glucocorticoid receptor expressed in baculovirus infected Sf9 cells after overnight incubation by scintillation counting. In general terms: In a radioligand displacement assay an active substance lowers the binding of a labelled ligand.
For data set [18], the system named is Mus musculus. As to the kind of experiment: Hepatotoxicity in ob/ob mouse assessed as ALT level at 10 mg/kg, po administered BID for 28 days measured st 16 hrs post-last dose (reference value: 259.4+/-18.6 U/L). Set-up: dose 10 mg/kg, route oral. The conditions noted are these: in vivo. Format: toxicity, organism-based.
In data set [19] the test system is Mus musculus. As to the kind of experiment: Antidiabetic activity in ob/ob mouse assessed as insulin level at 20 mg/kg, po administered BID for 28 days measured 16 hrs post-last dose by ELISA (reference value: 13.6+/-2.3 ng/mL). Type of data set: functional.

Turning to `O=C(O)Cc1cc(Br)c(N(Cc2ccc(Oc3ccc(F)cc3F)cc2)Cc2cc(F)cc(F)c2)c(Br)c1`, the Activity in the data set with Mus musculus [1] came to 14.1 ng/mL; in the data set with Mus musculus [3], 173.5 mg/dL; with Mus musculus [6], 1.17 mEq/L; with Mus musculus [7] it was 11.9 g; in the data set with Mus musculus [8], 219.5 mg/dL; in the data set with Mus musculus [9], 6%. The Activity with Mus musculus [14] worked out at 10.9 g; in the data set with Mus musculus [15], 32%; with Mus musculus [16] it was 42%; in the data set on Mus musculus [18], 261 U/L; with Mus musculus [19], 12.3 ng/mL. The IC50 (usually the concentration needed to halve the response being measured) came out at 900 nM on Glucocorticoid receptor [2], 211 nM on Glucocorticoid receptor [13] and 4.5 nM on Glucocorticoid receptor [17]. The concentration ratio (Kp) (as a rule, tissue or fluid exposure divided by exposure in the circulation) in data set [4] was found to be 24.8. In addition, in [5], the half-life (in general, the time needed for the level to fall by half in the phase considered) is 5.96 h. Further, the bioavailability (usually dose-corrected exposure relative to a reference, in per cent) in [10] was determined as 10.7%. Moreover, the concentration at 0.5 h in data set [11] worked out at 21800 ng/mL. In addition, the AUC (usually concentration integrated over time) in data set [12] came to 13000 ng·h/mL.
